Experimental findings from patent US20040266008A1, “Polyene polyketides, processes for their production and their use as pharmaceuticals” (Ecopia BioSciences, Inc., priority 2003, published 2004) are described below.

Test [1] has as its system C. albicans (Calb). In words: MIC broth microdilution, C. albicans (Calb). On the technique in general: Dilution methods test growth across graded concentrations, often in twofold steps.
Test [2] has as its system Candida sp. (Cflu). The test is described as follows: MIC broth microdilution, Candida sp. (Cflu).
Test [3] has as its system C. glabrata (Cgla). In words: MIC broth microdilution, C. glabrata (Cgla).
For test [4], the system named is C. albicans (Ctro). The test is described as follows: MIC broth microdilution, C. albicans (Ctro).
The test system of test [5] is S. cerevisiae (Scer). The test is described as follows: MIC broth microdilution, S. cerevisiae (Scer).

`C[C@@H]1[C@H](O)[C@@H](C)/C=C/C=C/C=C/C=C/C=C/C=C/C=C/[C@H](O[C@@H]2O[C@H](C)[C@@H](O)[C@H](N)[C@@H]2O)C[C@@H]2O[C@](O)(C[C@@H](O)C[C@@H](O)[C@H](O)CC[C@@H](O)C[C@@H](O)CC(=O)O[C@H]1C)C[C@H](O)[C@H]2C(=O)O` [Amphotericin B]: the “Minimal Inhibitory Concentrations” value was 0.5 to 1 µg/mL in test [1] (24 hrs); 1 µg/mL in test [1] (48 hrs); 0.5 to 1 µg/mL in test [2] (24 hrs); 1 µg/mL in test [2] (48 hrs); 0.5 to 1 µg/mL in test [3] (24 hrs); 1 µg/mL in test [3] (48 hrs). Moreover, the “Minimal Inhibitory Concentrations” value stood at 1 µg/mL in test [4] (24 hrs), 2 µg/mL in test [4] (48 hrs), 0.5 µg/mL in test [5] (24 hrs) and 1 µg/mL in test [5] (48 hrs).

With `C\C(=C/C=C/C=C/CC/C=C/C(C)C(O)C(C)C(O)/C=C/C=C/C=C/C=C/C=C/C=C/CC(OS(=O)(=O)O)C(C)C(=O)CC(O)CC(O)/C=C/CC(O)CC(O)CC(O)/C=C/CC(O)CC(O)/C=C/CC(O)CC(O)CCCNC(=N)N)C(=O)O` (centres unmarked) [Compound 1], the “Minimal Inhibitory Concentrations” value in test [1] (24 hrs) turned out to be 4 µg/mL; in test [2] (24 hrs), 8 µg/mL; in test [3] (24 hrs), 4 µg/mL; in test [4] (24 hrs) it was 4 µg/mL; in test [5] (24 hrs), 4 µg/mL.

As to `C\C(=C/C=C/C=C/CC/C=C/C(C)C(O)C(C)C(O)/C=C/C=C/C=C/C=C/C=C/C=C/CC(O)C(C)C(=O)CC(O)CC(O)/C=C/CC(O)CC(O)CC(O)/C=C/CC(O)CC(O)/C=C/CC(O)CC(O)CCCNC(=N)N)C(=O)O` (centres unmarked) [Compound 2], the “Minimal Inhibitory Concentrations” value in test [1] (48 hrs) turned out to be 4 µg/mL; in test [2] (48 hrs) it was 8 µg/mL; in test [3] (48 hrs), 4 µg/mL; in test [4] (48 hrs), 4 µg/mL; in test [5] (48 hrs), 4 µg/mL.
